This passage reports IC50 results from US11981680B2, “Substituted thienopyrroles as PAD4 inhibitors” (BRISTOL-MYERS SQUIBB COMPANY, priority 2018, dated 2024).

pIC50: −log10 of the molar value.

Chain of human PAD4 (hPAD4) (Q9UM07 whole entry): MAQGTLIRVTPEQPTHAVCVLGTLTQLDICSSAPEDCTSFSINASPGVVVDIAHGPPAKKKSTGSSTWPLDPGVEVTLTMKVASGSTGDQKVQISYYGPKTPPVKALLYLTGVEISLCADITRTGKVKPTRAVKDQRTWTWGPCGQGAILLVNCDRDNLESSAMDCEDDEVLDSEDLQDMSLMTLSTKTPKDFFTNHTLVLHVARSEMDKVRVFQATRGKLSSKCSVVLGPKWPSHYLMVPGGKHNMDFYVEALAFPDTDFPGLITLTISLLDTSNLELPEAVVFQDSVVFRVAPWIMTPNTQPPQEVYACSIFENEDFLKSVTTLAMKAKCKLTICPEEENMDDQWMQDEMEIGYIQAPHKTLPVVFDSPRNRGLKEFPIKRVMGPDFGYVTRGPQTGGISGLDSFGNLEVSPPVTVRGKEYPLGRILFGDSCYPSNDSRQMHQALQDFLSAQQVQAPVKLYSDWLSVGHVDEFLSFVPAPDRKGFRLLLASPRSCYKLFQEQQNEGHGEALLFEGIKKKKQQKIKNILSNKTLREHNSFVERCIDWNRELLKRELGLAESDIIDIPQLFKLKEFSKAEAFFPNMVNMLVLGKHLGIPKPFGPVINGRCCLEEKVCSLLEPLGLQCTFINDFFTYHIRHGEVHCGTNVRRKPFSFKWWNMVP

The assay addresses human PAD4 (hPAD4) (Homo sapiens (Human), UniProt Q9UM07). As to the kind of experiment: RFMS Human PAD4 Functional Assay. In kind it is biochemical. The following applies: rapid-fire mass spectrum (RFMS) assay; 5 nM hPAD4 enzyme, 250 μM BAEE, 30 min preincubation at 37° C. The protocol:
Compounds of the present invention were assayed as inhibitors of PAD4 using the assay protocol described below.
RFMS Human PAD4 Functional Assay:
Compounds were solubilized in 100% DMSO to achieve a10 mM compound concentration. Compound stock solutions were stored at RT. A series of dilutions were prepared in DMSO and mixed 8 times with 20 μL mixing volume. Final top concentration of compound in the assay is 50 μM. Final assay conditions were as follows: • Reaction volume: 26 μl • Assay buffer: 25 mM hepes, pH 7.5, 5 mM NaCl, 1 mM DTT, 0.2 mg/ml BSA, 0.01% CHAPS, 50 μM Calcium, and 5 μM TPEN • Final concentrations: 5 nM hPAD4 enzyme, 250 μM BAEE, and 0.5% DMSO • Total incubation time: 30 mins compound and enzyme preincubation at 37° C., 90 min enzyme/substrate reaction, 30 min reaction with phenyl glyoxal at 37° C. • Stop solution: 40 μl 5% TCA in ACN
0.13 μL of compound solution was added to 13 μL of 10 nM PAD4 in assay buffer. After 30 min 13 μl of 500 μM of BAEE was added in 25 mM hepes, pH 7.5, 5 mM NaCl, 1 mM DTT, 0.2 mg/ml BSA, 0.01% CHAPS, 50 μM Calcium, 5 μM TPEN was added and the reaction incubated for 90 min at 37° C. The enzymatic reaction was quenched by addition of 15 μl of 6.1N TCA, 100% Final Concentration is 20%, 35 μl of 8.5 mM phenyl glyoxal (final concentration 4 mM) is then added and the reaction is incubated for 30 min at 37° C.
After 30 minutes the plates are spun down to remove all precipitate. The enzyme reaction was quenched with an equal volume of methanol containing internal standard (modified citrulline). Samples were loaded onto the Rapid Fire RF300 system (Agilent) wherein they were first sipped for 1000 ms and then directly loaded to a C18 separations cartridge using a mixture of acetonitrile containing 0.01% formic acid for 3000 ms desalting. The flow rate of the mobile phase was 1.5 ml/min. Once the samples were eluted from the cartridge, a mobile phase of acetonitrile containing 0.01% formic acid was used to move the samples into the mass spectrometer for 4000 ms at a flow rate of 1.25 ml/min/Sciex API5500 triple quadrupole mass spectrometer (Applied Biosystems) equipped with ESI was used to analyze the peptidyl citrulline and internal standard ions.
MRM transition of product and internal standard were monitored at m/z 424.5 to 350.4 and m/z 293 to 247 respectively. The dwell time for each transition was set at 200 ms, and the ESI voltage was used at 5500 with a source temperature of 400° C. Extracted ion peaks for each transition were integrated using the Rapid Fire Integrator software. Peak area of analyte was normalized with internal standard.).
As to `COc1cc(C(=O)N2C[C@H]3CC[C@@H]2[C@@H]3N)cc2nc(-c3cc4scc(C5CC(O)C5)c4n3CC3CC3)n(C)c12` (mixture of isomers) [Example 7, cis/trans-((1R,4R,7R)-7-amino-2-azabicyclo[2.2.1]heptan-2-yl)(2-(4-(cyclopropylmethyl)-3-(3-hydroxycyclobutyl)-4H-thieno[3,2-b]pyrrol-5-yl)-7-methoxy-1-methyl-1H-benzo[d]imidazol-5-yl)methanone], the negative-log IC50 (pIC50) (in general, −log10 of the IC50, conventionally taken in molar units) is 7.47.

Molecule `COc1cc(C(=O)N2C[C@H]3CC[C@@H]2[C@@H]3N)cc2nc(-c3cc4scc(C5CCC(O)CC5)c4n3CC3CC3)n(C)c12` (mixture of isomers) [Example 10, cis/trans-((1R,4R,7R)-7-amino-2-azabicyclo[2.2.1]heptan-2-yl)(2-(4-(cyclopropylmethyl)-3-(4-hydroxycyclohexyl)-4H-thieno[3,2-b]pyrrol-5-yl)-7-methoxy-1-methyl-1H-benzo[d]imidazol-5-yl)methanone] had a pIC50 of 7.34.

Consider `COc1cc(C(=O)N2C[C@H]3CC[C@@H]2[C@@H]3N)cc2nc(-c3cc4scc(C5CCCNC5)c4n3CC3CC3)n(C)c12` (single isomer, unassigned) [Example 9], for which the pIC50 was 7.40.

As for `COc1cc(C(=O)N2C[C@H]3CC[C@@H]2[C@@H]3N)cc2nc(-c3cc4scc(C5CCCNC5)c4n3CC3CC3)n(C)c12` (single isomer, unassigned) [Example 17], the negative logarithm of the IC50 (pIC50) was 7.10. This pIC50 is 0.30 log units lower than that of the molecule before.

Consider `COc1cc(C(=O)N2C[C@H]3CC[C@@H]2[C@@H]3N)cc2nc(-c3cc4scc(C5CC(O)C5)c4n3CC3CC3)n(C)c12` (single isomer, unassigned) [Example 21], for which the pIC50 is 7.42.

With `COc1cc(C(=O)N2C[C@H]3CC[C@@H]2[C@@H]3N)cc2nc(-c3cc4scc(C5CC(O)C5)c4n3CC3CC3)n(C)c12` (single isomer, unassigned) [Example 22], the negative-log IC50 (pIC50) is 7.09.

As for `COc1cc(C(=O)N2C[C@H]3CC[C@@H]2[C@@H]3N)cc2nc(-c3cc4scc(Br)c4n3CC3CC3)n(C)c12` [Example 1, ((1R,4R,7R)-7-amino-2-azabicyclo[2.2.1]heptan-2-yl)(2-(3-bromo-4-(cyclopropylmethyl)-4H-thieno[3,2-b]pyrrol-5-yl)-7-methoxy-1-methyl-1H-benzo[d]imidazol-5-yl)methanone], the pIC50 is 7.46.

Turning to `COc1cc(C(=O)N2C[C@H]3CC[C@@H]2[C@@H]3N)cc2nc(-c3cc4scc(C5COC5)c4n3CC3CC3)n(C)c12` [Example 2, ((1R,4R,7R)-7-amino-2-azabicyclo[2.2.1]heptan-2-yl)(2-(4-(cyclopropylmethyl)-3-(oxetan-3-yl)-4H-thieno[3,2-b]pyrrol-5-yl)-7-methoxy-1-methyl-1H-benzo[d]imidazol-5-yl)methanone], the pIC50 was 7.20.

In turn, `COc1cc(C(=O)N2C[C@H]3CC[C@@H]2[C@@H]3N)cc2nc(-c3cc4scc(C5CCNCC5)c4n3CC3CC3)n(C)c12` [Example 3, ((1R,4R,7R)-7-amino-2-azabicyclo[2.2.1]heptan-2-yl)(2-(4-(cyclopropylmethyl)-3-(piperidin-4-yl)-4H-thieno[3,2-b]pyrrol-5-yl)-7-methoxy-1-methyl-1H-benzo[d]imidazol-5-yl)methanone] had a pIC50 of 7.92.

The molecule `COc1cc(C(=O)N2C[C@H]3CC[C@@H]2[C@@H]3N)cc2nc(-c3cc4scc(C5CCN(C(C)=O)CC5)c4n3CC3CC3)n(C)c12` [Example 4, 1-(4-(5-(5-((1R,4R,7R)-7-amino-2-azabicyclo[2.2.1]heptane-2-carbonyl)-7-methoxy-1-methyl-1H-benzo[d]imidazol-2-yl)-4-(cyclopropylmethyl)-4H-thieno[3,2-b]pyrrol-3-yl)piperidin-1-yl)ethan-1-one] had a pIC50 of 7.85. The pIC50 values of the last two molecules are within 0.2 log units of each other.

In turn, `COc1cc(C(=O)N2C[C@H]3CC[C@@H]2[C@@H]3N)cc2nc(-c3cc4scc(C5CC(NC(C)=O)C5)c4n3CC3CC3)n(C)c12` (stereo partly drawn) [Example 5, N-(3-(5-(5-((1R,4R,7R)-7-amino-2-azabicyclo[2.2.1]heptane-2-carbonyl)-7-methoxy-1-methyl-1H-benzo[d]imidazol-2-yl)-4-(cyclopropylmethyl)-4H-thieno[3,2-b]pyrrol-3-yl)cyclobutyl)acetamide] showed a pIC50 of 7.72.

In turn, `COc1cc(C(=O)N2C[C@H]3CC[C@@H]2[C@@H]3N)cc2nc(-c3cc4scc(CCC(C)(C)O)c4n3CC3CC3)n(C)c12` [Example 6, ((1R,4R,7R)-7-amino-2-azabicyclo[2.2.1]heptan-2-yl)(2-(4-(cyclopropylmethyl)-3-(3-hydroxy-3-methylbutyl)-4H-thieno[3,2-b]pyrrol-5-yl)-7-methoxy-1-methyl-1H-benzo[d]imidazol-5-yl)methanone] had a pIC50 of 7.49.

For the molecule `COc1cc(C(=O)N2C[C@H]3CC[C@@H]2[C@@H]3N)cc2nc(-c3cc4scc(C5CCOCC5)c4n3CC3CC3)n(C)c12` [Example 8, ((1R,4R,7R)-7-amino-2-azabicyclo[2.2.1]heptan-2-yl)(2-(4-(cyclopropylmethyl)-3-(tetrahydro-2H-pyran-4-yl)-4H-thieno[3,2-b]pyrrol-5-yl)-7-methoxy-1-methyl-1H-benzo[d]imidazol-5-yl)methanone], the pIC50 is 7.40.

The molecule `COc1cc(C(=O)N2C[C@H]3CC[C@@H]2[C@@H]3N)cc2nc(-c3cc4scc(CCC(N)=O)c4n3CC3CC3)n(C)c12` [Example 11, 3-(5-(5-((1R,4R,7R)-7-amino-2-azabicyclo[2.2.1]heptane-2-carbonyl)-7-methoxy-1-methyl-1H-benzo[d]imidazol-2-yl)-4-(cyclopropylmethyl)-4H-thieno[3,2-b]pyrrol-3-yl)propanamide] gave a pIC50 of 7.33.

In turn, `COc1cc(C(=O)N2C[C@H]3CC[C@@H]2[C@@H]3N)cc2nc(-c3cc4scc(C5CCOC5)c4n3CC3CC3)n(C)c12` (stereo partly drawn) [Example 12, ((1R,4R,7R)-7-amino-2-azabicyclo[2.2.1]heptan-2-yl)(2-(4-(cyclopropylmethyl)-3-(tetrahydrofuran-3-yl)-4H-thieno[3,2-b]pyrrol-5-yl)-7-methoxy-1-methyl-1H-benzo[d]imidazol-5-yl)methanone] showed a pIC50 of 7.31. The pIC50 values of the last two molecules are within 0.2 log units of each other.

`COc1cc(C(=O)N2C[C@H]3CC[C@@H]2[C@@H]3N)cc2nc(-c3cc4scc(CCN5CCOC5=O)c4n3CC3CC3)n(C)c12` [Example 13, 3-(2-(5-(5-((1R,4R,7R)-7-amino-2-azabicyclo[2.2.1]heptane-2-carbonyl)-7-methoxy-1-methyl-1H-benzo[d]imidazol-2-yl)-4-(cyclopropylmethyl)-4H-thieno[3,2-b]pyrrol-3-yl)ethyl)oxazolidin-2-one] showed a negative logarithm of the IC50 (pIC50) of 7.27. The pIC50 values of the last two molecules are within 0.2 log units of each other.

For `COc1cc(C(=O)N2C[C@H]3CC[C@@H]2[C@@H]3N)cc2nc(-c3cc4scc(CCCO)c4n3CC3CC3)n(C)c12` [Example 14, ((1R,4R,7R)-7-amino-2-azabicyclo[2.2.1]heptan-2-yl)(2-(4-(cyclopropylmethyl)-3-(3-hydroxypropyl)-4H-thieno[3,2-b]pyrrol-5-yl)-7-methoxy-1-methyl-1H-benzo[d]imidazol-5-yl)methanone], the pIC50 is 7.25.

`COc1cc(C(=O)N2C[C@H]3CC[C@@H]2[C@@H]3N)cc2nc(-c3cc4scc(CCC#N)c4n3CC3CC3)n(C)c12` [Example 15, 3-(5-(5-((1R,4R,7R)-7-amino-2-azabicyclo[2.2.1]heptane-2-carbonyl)-7-methoxy-1-methyl-1H-benzo[d]imidazol-2-yl)-4-(cyclopropylmethyl)-4H-thieno[3,2-b]pyrrol-3-yl)propanenitrile]: the pIC50 is 7.23.

Molecule `COc1cc(C(=O)N2C[C@H]3CC[C@@H]2[C@@H]3N)cc2nc(-c3cc4scc(C5CNC5)c4n3CC3CC3)n(C)c12` [Example 16, ((1R,4R,7R)-7-amino-2-azabicyclo[2.2.1]heptan-2-yl)(2-(3-(azetidin-3-yl)-4-(cyclopropylmethyl)-4H-thieno[3,2-b]pyrrol-5-yl)-7-methoxy-1-methyl-1H-benzo[d]imidazol-5-yl)methanone] gave a pIC50 of 6.90.
